Assays:
PDI = biological target: T1, PDI (Homo sapiens, UniProt P07237); experiment: Insulin-based turbidometric assay of thiol isomerase inhibitory activity (PDI); type: biochemical; settings: insulin turbidity assay, 6 point dose curve
T1 construct: purchased AbCam (Cambridge Mass.)
From the text: (§1) Recombinant thiol isomerases were purchased from AbCam (Cambridge Mass.), recombinant insulin (bovine), bacitracin, dithiothreitol (DTT) buffers and all other chemicals were purchased from Sigma Aldrich (St. Louis, Mo.; while 384 well clear bottom plates were purchased from Corning (Corning, N.Y.).
(§2) The catalytic reduction of insulin by thiol isomerases in the presence of DTT results in aggregation of insulin chains. The turbidity of insulin aggregation can be monitored spectrophotometrically at an optical density (OD) at 650 nm. This approach has been used by multiple groups to identify thiol isomerase inhibitors in either a kinetic or endpoint fashion. A final concentration of either 10 μg/mL PDI, 30 μg/mL ERp5, 10 μg/mL ERp72 or 10 μg/mL thioredoxin, 125 μM insulin and 2 mM ethylenediaminetetraacetic acid (EDTA) in 30 μL of 100 mM potassium phosphate buffer was added to each experimental well plate, while negative control wells lacked any thiol isomerase. Lead compounds were diluted in a 6 point dose curve and the turbidity of insulin aggregation was measured kinetically each minute for 75 minutes using a Spectramax M3 plate reader (Molecular Devices, Sunnyvale, Calif.) Specificity assay utilized the insulin turbidity assay as well.

thioredoxin (TRX) = biological target: T2, thioredoxin (TRX) (Homo sapiens, UniProt P10599); experiment: Insulin-based turbidometric assay of thiol isomerase inhibitory activity (thioredoxin); type: biochemical; settings: insulin turbidity assay, 6 point dose curve
T2 construct: purchased AbCam (Cambridge Mass.)
T2 sequence (P10599 1-105): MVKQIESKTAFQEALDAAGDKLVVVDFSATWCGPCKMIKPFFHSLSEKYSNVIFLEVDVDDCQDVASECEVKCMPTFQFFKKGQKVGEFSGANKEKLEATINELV
From the text: as §1, §2

human washed platelets = experiment: Collagen stimulated platelet aggregation; type: cell-based; settings: collagen 1 μg/mL, 3 minutes
Procedure: Human Platelet Preparation: 50 mL of blood was drawn from drug free, consenting individuals, into a syringe containing 5 mL sodium citrate (4% w/v) and 7.5 mL warmed ACD (85 mM sodium citrate, 71 mM citric acid and 110 mM glucose). Blood was centrifuged at 102 g for 20 minutes to obtain platelet-rich plasma (PRP), which was then decanted and 104 prostacyclin (PGI2 125 μg/mL, solubilized in ethanol) added. Platelets were pelleted by centrifugation at 1413 g for 10 minutes, platelet poor plasma was discarded and the pellet resuspended in 25 mL Tyrode's-HEPES buffer (134 mM NaCl, 2.9 mM KCl, 0.34 mM Na2HPO4, 12 mM NaHCO3, 20 mM HEPES, 1 mM MgCl2 and 5 mM glucose pH 7.3), 3 mL of ACD and 10 μL PGI2 were added and then following centrifugation at 1413 g for 10 minutes, the platelet pellet was re-suspended to the appropriate cell density using Tyrode's buffer. Platelets were rested for 30 minutes at 30° C. to allow platelet responses to recover.
Platelet Aggregation: 445 μL of washed platelets at (4×10^8 cells/mL) were incubated for 5 minutes with vehicle (0.1% (v/v) DMSO) or 54 zafirlukast or montelukast. 50 μL of collagen 1 μg/mL (final), was added and light transmission monitored for 3 minutes at 37° C. with constant stirring (1200 rpm) using an aggregometer (Chronolog, USA).
Statistical analyses: All raw data was analyzed by 1-way ANOVA and where appropriate normalized to vehicle. GraphPad Prism was used to perform statistical analysis by ANOVA or students T test. The level of significance of p values is as follows, *p<0.05,**p<0.01, ***p<0.005. Data presented are mean+/−standard error of the mean.
Zafirlukast inhibits platelet aggregation: Human washed platelets (4×10^8 cells/mL) were pre-treated with 0.1 μM-10 μM zafirlukast or vehicle. Platelets were stimulated with collagen 1 μg/mL and allowed to aggregate for 3 minutes. Aggregation traces representative of the response were obtained and dose responses compared.

HCT116 cells = experiment: PrestoBlue cell proliferation assay, HCT116; type: cell-based, human; settings: HCT116, colon cancer, 24 hours treatment
Procedure: (§3) Cells were plated at 6,000 cells/well in a 96-well plate and treated with the indicated concentration of zafirlukast 24 hours later. Cells were allowed to grow for an additional 24 hours before alterations in growth were measured by the PrestoBlue cell proliferation assay in triplicate. Fluorescence readings with an excitation at 570 nm and emission of 600 nm were collected and treated samples were converted to a percentage of the untreated controls. OVCar8 (human ovarian cancer cell line), HCT116 (human colon cancer), HeLa (cervical cancer cell line) and MDA-MB-231 (breast cancer cell line) cell lines were examined for their ability to inhibit cell proliferation. […] Table 1 illustrates the results of a cell proliferation assay testing zafirlukast against OVCar8 cells, HCT116 cells, HeLa cells and MDA-MB-231 cells.

OVCar8 cells = experiment: PrestoBlue cell proliferation assay, OVCar8; type: cell-based, human; settings: OVCar8, ovarian cancer, 24 hours treatment
Procedure: as §3

HeLa cells = experiment: PrestoBlue cell proliferation assay, HeLa; type: cell-based
Procedure: as §3

T1 sequence (P07237 18-508): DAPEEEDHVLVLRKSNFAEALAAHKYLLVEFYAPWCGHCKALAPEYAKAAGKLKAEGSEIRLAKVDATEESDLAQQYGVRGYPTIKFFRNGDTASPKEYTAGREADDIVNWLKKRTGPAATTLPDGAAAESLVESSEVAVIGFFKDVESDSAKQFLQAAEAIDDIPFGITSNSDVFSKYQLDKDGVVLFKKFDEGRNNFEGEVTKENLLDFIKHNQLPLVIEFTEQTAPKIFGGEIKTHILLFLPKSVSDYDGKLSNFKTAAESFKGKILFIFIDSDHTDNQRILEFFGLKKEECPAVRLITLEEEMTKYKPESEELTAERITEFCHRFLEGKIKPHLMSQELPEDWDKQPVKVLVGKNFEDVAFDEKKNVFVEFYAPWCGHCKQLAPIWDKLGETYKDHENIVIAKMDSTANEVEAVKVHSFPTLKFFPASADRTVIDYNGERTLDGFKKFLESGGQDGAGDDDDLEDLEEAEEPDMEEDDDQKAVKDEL

SMILES: COc1cc(C(=O)NS(=O)(=O)c2ccccc2C)ccc1Cc1cn(C)c2ccc(NC(=O)OC3CCCC3)cc12 [zafirlukast, 4-(5-cyclopentyloxycarbonylamino-1-methylindol-3-ylmethyl)-3-methoxy-N-o-tolylsulfonylbenzamide]
- inhibitory range on PDI (PDI): 30 to 300 µM
- inhibitory range on TRX (thioredoxin (TRX)): 10 to 300 µM
- inhibition of platelet aggregation (in words) (human washed platelets; 0.1 μM): did not significantly inhibit
- inhibition of platelet aggregation (in words) (human washed platelets; 0.3 μM): did not significantly inhibit
- platelet aggregation, normalized to vehicle (human washed platelets; 0.6 μM): 54.8%
- platelet aggregation, normalized to vehicle (human washed platelets; 1.25 μM): 54.9%
- platelet aggregation, normalized to vehicle (human washed platelets; 2.5 μM): 40.00%
- platelet aggregation, normalized to vehicle (human washed platelets; 5 μM): 22.47%
- platelet aggregation, normalized to vehicle (human washed platelets; 10 μM): 18.1%
- inhibition at 0.6 µM (human washed platelets; Homo sapiens, Platelet, 0.05 h, 0.6 μM): 45%
- inhibition at 1.25 µM (human washed platelets; Homo sapiens, Platelet, 0.05 h, 1.25 μM): 45%
- inhibition at 2.5 µM (human washed platelets; Homo sapiens, Platelet, 0.05 h, 2.5 μM): 60%
- inhibition at 5 µM (human washed platelets; Homo sapiens, Platelet, 0.05 h, 5 μM): 77.5%
- inhibition at 10 µM (human washed platelets; Homo sapiens, Platelet, 0.05 h, 10 μM): 81.9%
- IC50 (HCT116 cells): 5 µM
- IC50 (HCT116 cells; Homo sapiens, HCT-116, 24 h): 5 to 10 µM
- IC50 (OVCar8 cells; Homo sapiens, OVCAR-8, 24 h): 5 to 10 µM
- IC50 (OVCar8 cells): 6 µM
- IC50 (HeLa cells; Homo sapiens, cervical cancer, 24 hours treatment): 30 µM
- sensitivity of cell proliferation (in words) (HeLa cells; compared with OVCar8 and HCT116): less sensitive

Source: patent US11872210B2, “Thiol isomerases inhibitors and use thereof” (WESTERN NEW ENGLAND UNIVERSITY, priority 2017, dated 2024)
